Assay results published in US20090311246A1, “Method of Enhancing Remyelination in Demyelinating Diseases of the Central Nervous System” (priority 2008, published 2009).
“Also recorded” adds a separate entry of the source.

Key:
[1] = test system: Rabbit Anti-SFV polyclonal antibody; assay: Indirect ELISA of rabbit anti-SFV polyclonal IgG against viral and myelin antigens; type: binding
Description: The total IgG fraction was commercially prepared (Strategic Biosolutions, Ramona, Calif.) from pooled sera of 3 rabbits immunized once with UV-inactivated SFV (A774 strain) emulsified in CFA and boosted 3 times with antigen in IFA at weeks 3, 5, and 7. The IgG fraction of the pooled antisera was purified by ion-exchange chromatography and contained 8.7 mg IgG/ml of PBS. Antibody activities to SFV and peptides of SFV, to E2, and to recombinant ® MOG and its peptides were confirmed by ELISA. Normal rabbit IgG, isolated from pooled normal rabbit sera by ion-exchange chromatography (Signa Chemical Co., St. Louis, Mo.), was dissolved in saline. Protein concentration was determined by the Bradford assay (Sigma), using normal rabbit IgG as the standard. The IgG solutions were diluted to 3 mg protein/ml in saline and sterilized by passage through a 0.22 μm filter (Millipore Corp., Bedford, Mass.).
(§1) To measure the antibody response of both WT and γδ KO mice against SFV and two of the peptides of the SFV envelope protein, E2, an indirect ELISA was performed. Sera were pooled from 4-6 SFV-infected WT, and 3 KO, mice on days 0, 7, 14, 21 and 35 pi. Briefly, Immunolon 2HB 96 well microtiter plates (VWR, Bridge Port, N.J.) were coated with 1 μg/well of each antigen in 100 μl/well carbonate buffer overnight at room temperature. After washing, the plates were blocked and serum samples were added. […] After washing, biotinylated goat anti-mouse Igs (BD Pharmingen, Torreyana, Calif.), Strepavidin conjugated to Horse Radish Peroxidase (Vector Laboratories, Burlingame, Calif.), and OPD substrate (Sigma, St. Louis, Mo.) were used, as previously described (4, 9). […] Values were considered to be positive when they were >0.3 OD units and exceeded the mean value plus three standard deviations for antibody response on day 0 pi of mice of the same strain.
The polyclonal rabbit anti SFV antibody was commercially prepared (Strategic Biosolutions, Ramona, Calif.) from pooled sera of 3 rabbits, immunized once with UV-inactivated SFV (A774 strain) emulsified in CFA and boosted 3 times with antigen in IFA at weeks 3, 5, and 7.

[2] = test system: Normal Rabbit Serum; assay: Indirect ELISA of normal rabbit serum/IgG against viral and myelin antigens; type: binding; conditions: 10^−2 diluted
[3] = test system: SFV-infected WT and γδ KO mice; assay: E2 137-151 peptide immunization during SFV disease: serum antibody response (ELISA); type: in vivo
Text: Optical densities (OD) (3A) and ratios (3B) of Non-immunized/Immunized, WT and KO, of ELISA responses to SFV and to E2 peptide, 137-151 is shown. Samples were collected on days 15, 21, 28 and 35 after intraperitoneal infection of B6 mice with SFV and immunization with E2 137-151. The dilutions for sera were 1:80, Amount of antibody is shown as mean optical density (OD) of sera from three experiments±standard error of the mean (SEM). The background OD is subtracted from each time point.
as §1
WT and KO mice were immunized subcutaneously with E2 137-151 (0.5 mg/injection or 25 mg/kg, based on the average weight of 20 g/mouse) in IFA on the day of SFV-infection. Additional injections of E2 137/IFA were performed on days 5 and 15 for WT and KO mice. Mice are sacrificed on days 15, 21, 35 and 42 pi and sera were tested by ELISA for reactivity with SFV and its peptides. […] This immunization, however, appeared to have suppressed the formation of anti-E2 137-151 antibody in SFV-infected, E2 137-151-immunized WT mice.

[4] = test system: B6 mice with EAE; assay: Clinical scores of E2 137-151 peptide-treated mice with MOG 35-55 induced EAE; type: in vivo; conditions: for Disease severity, treatment from D12 post-EAE induction, compared with untreated EAE mice: 0.5 mg/injection sc in IFA on D12, 17, 22, peak D19
Description: FIG. 6 Comparison of Average Clinical Scores (±SEM) of E2 137-151 peptide-treated, and untreated B6 mice with EAE, on different days post treatment. Data shown is the average of three experiments, total numbers of mice were 21 EAE and 22 treated EAE mice. All mice were immunized subcutaneously with myelin oligodendrocyte glycoprotein (MOG) peptide 35-55 in CFA, on D0. Treated EAE mice received subcutaneous injection of E2-137 peptide (0.5 mg/injection or 25 mg/kg, based on the average weight of 20 g/mouse) in IFA, on day 12 post EAE induction. Additional inoculations of E2-137 peptide/IFA were performed twice more with 5-day intervals. Following the injection, animals were observed daily for clinical manifestations of disease and were scored on a scale of 0-VI, as above. Clinical scores of sacrificed and dead animals have been considered in average calculation till the end of the experiments on day 39.
Method—To induce EAE, fourteen 7-8 wk old B6 mice (Jackson Laboratories, Bar Harbor, Mass.) were each inoculated, subcutaneously, with […] MOG 35-55 in Complete Freund's Adjuvant (CFA) or CFA only (as control), followed by two injections of 100 ng of pertusis toxin, 48 hours apart (9, 73). Eight mice in EAE-induced group were immunized subcutaneously with E2-137-151 (0.5 mg/injection or 25 mg/kg, based on the average weight of 20 g/mouse) in IFA, one day after MOG inoculation. One additional inoculation of E2 137-151/IFA was performed 5 days later. Animals were observed daily for clinical manifestations of disease and were scored on a scale of 0-VI. 0=no abnormality; I=mild hind limb weakness (some difficulty righting themselves when turned on their back); II=moderate hind limb weakness, sometimes associated with floppy tail; III=weakness of hind limbs accompanied by some forelimb weakness, sometimes more marked on one limb or one side, but not complete paralysis; IV=hind limb paresis accompanied by mild forelimb weakness; V=paralysis of hind limbs, associated with moderate forelimb weakness; and VI-quadriplegia, moribund.
Result—Mice were immunized with MOG 35-55 in CFA, to induce EAE as described above. In the first two experiments, mice were divided into two groups, untreated, and treated after EAE induction. The treated EAE group received E2-137-151 peptide in IFA, subcutaneously on D5 post-EAE induction, before the signs of clinical disease were apparent.
Next, three experiments were performed with a total number of 21 RAE and 22 late treated EAE mice. […] EAE mice were further treated with E2-137-151 peptide on days 17 and 22 post-EAE induction. […] Peak of the disease in both RAE and D12 treated EAR mice were on D19 pi.

CC[C@H](C)[C@H](NC(=O)[C@H](CCC(=O)O)NC(=O)[C@H](CCCCN)NC(=O)CNC(=O)[C@H](Cc1ccc(O)cc1)NC(=O)[C@H](Cc1c[nH]cn1)NC(=O)[C@@H]1CCCN1C(=O)[C@H](CCCNC(=N)N)NC(=O)[C@@H](NC(=O)[C@@H](NC(=O)[C@H](Cc1ccccc1)NC(=O)[C@H](CCCCN)NC(=O)[C@H](CCC(=O)O)NC(=O)[C@H](CCCNC(=N)N)NC(=O)CN)[C@@H](C)O)[C@@H](C)CC)C(=O)O [E2 137-151]
Rabbit Anti-SFV Ab, OD at 490 nm ([1]; 10^−2 diluted, indirect ELISA): 1.107 OD
Immunoreactivity of IgG fraction of serum from rabbits immunized with UV-inactivated SFV ([1]; ELISA): strong immunoreactivity
OD Difference ([1]; Rabbit Anti-SFV Ab minus Normal Rabbit Serum): 0.934 OD
Normal Rabbit Serum, OD at 490 nm [2]: 0.173 OD
Formation of anti-E2 137-151 antibody in SFV-infected, immunized WT mice ([3]; 0.5 mg/injection sc in IFA, WT mice): suppressed
Ratio of antibody production to SFV, immunized versus non-immunized ([3]; KO and WT mice): did not increase
Antibody to E2 137-151 peptide after immunization ([3]; SFV-infected KO mice): increased the antibody to this peptide only
Ratio of KO/WT anti E2 137-151 antibody production ([3]; immunized versus non-immunized): significantly increased
Disease severity, treatment from D12 post-EAE induction, compared with untreated EAE mice [4]: significantly less severe disease on peak day
Disease severity, treatment from D12 post-EAE induction, compared with untreated EAE mice ([4]; listed as E2 137-151 peptide): significantly suppressed the clinical disease; also recorded: improved clinical EAE
Disease severity, treatment from D12 post-EAE induction, compared with untreated EAE mice ([4]; listed as E2-137 peptide): Average disease severity in EAE mice was significantly higher than treated EAE mice
Clinical disease score at the peak of the disease on D19 ([4]; 19 treated EAE mice (of 22), scale 0-VI): < 1.5
Clinical signs of EAE, treatment on D5 post-EAE induction ([4]; E2-137-151 peptide in IFA sc before clinical signs): absence of clinical signs of EAE
